According to ChEMBL document CHEMBL2021770, “Potent and Selective Inhibitors of Long Chain l-2-Hydroxy Acid Oxidase Reduced Blood Pressure in DOCA Salt-Treated Rats” (ACS Med Chem Lett, 2011):
The source made the active and inactive calls. The calls are words filed in the database; no cut-off is given here.

Assays:
[1] = system: Rattus norvegicus; assay: Antihypertensive activity in DOCA-salt treated Wistar rat assessed as decrease in systolic blood pressure at 10 mg/kg, po bid administered 29 days after DOCA-salt-challenge for 15 days 12 to 15 hrs post-last dose by plethysmography; assay type: functional, organism-based; parameters: dose 10 mg/kg; details: Artery
[2] = system: Kidney; assay: Drug uptake in Wistar rat kidney at 3 mg/kg, po bid administered for 15 days measured 1 hr post-last dose; assay type: ADME, organism-based; parameters: dose 3 mg/kg, route oral; details: in vivo
[3] = system: Rattus norvegicus; assay: Antihypertensive activity in DOCA-salt treated Wistar rat assessed as decrease in systolic blood pressure at 3 mg/kg, po bid administered 29 days after DOCA-salt-challenge for 15 days 12 to 15 hrs post-last dose by plethysmography; assay type: functional
[4] = Elimination half life in rat at 1 mg/kg, iv; assay type: ADME, organism-based; parameters: dose 1 mg/kg, route intravenous; details: in vivo, read-out: beta t1/2 (converted)
[5] = target: Cytochrome P450 3A4 (Homo sapiens, UniProt P08684); assay: Inhibition of CYP3A4; assay type: ADME
[6] = AUC (0 to 8 hrs) in rat at 10 mg/kg, po; assay type: ADME, organism-based; parameters: time < 8 hr, dose 10 mg/kg, route oral; details: plasma
[7] = AUC (0 to 8 hrs) in rat at 1 mg/kg, iv; assay type: ADME, organism-based; parameters: time < 8 hr, dose 1 mg/kg, route intravenous; details: plasma
[8] = system: Rattus norvegicus; assay: Antihypertensive activity in DOCA-salt treated Wistar rat assessed as decrease in systolic blood pressure at 30 mg/kg, po bid administered 29 days after DOCA-salt-challenge for 15 days 12 to 15 hrs post-last dose by plethysmography; assay type: functional, Artery
[9] = system: HepG2; assay: Cytotoxicity against human HepG2 cells; assay type: cell-based
[10] = target: Cytochrome P450 2C9 (Homo sapiens, UniProt P11712); assay: Inhibition of CYP2C9; assay type: ADME
[11] = Drug metabolism in rat liver microsomes assessed as metabolic rate per 0.125 mg/mL protein; assay type: ADME, Microsome
[12] = system: Rattus norvegicus; assay: Ex-vivo inhibition of Hao2 in DOCA-salt treated Wistar rat kidney using [3H]-2-hydroxyoctanate as substrate assessed as inhibition of [3H]-H2O production at 30 mg/kg, po bid administered 29 days post DOCA-challenge for 15 days measured 1 hr post-last dose by microbeta counting relative to vehicle-treated control; assay type: functional
[13] = organism: Rattus norvegicus; assay: Selectivity ratio of IC50 for rat Hao1 to IC50 for rat Hao2
[14] = Volume of distribution at steady state in rat at 1 mg/kg, iv; assay type: ADME, organism-based; parameters: dose 1 mg/kg, route intravenous; details: in vivo, read-out: Vdss
[15] = Oral bioavailability in rat at 10 mg/kg; assay type: ADME, organism-based; details: in vivo
[16] = Cmax in rat at 10 mg/kg, po; assay type: ADME, organism-based; parameters: dose 10 mg/kg, route oral; details: in vivo
[17] = system: Kidney; assay: Drug uptake in Wistar rat kidney at 30 mg/kg, po bid administered for 15 days measured 1 hr post-last dose; assay type: ADME, organism-based; parameters: dose 30 mg/kg, route oral; details: in vivo
[18] = target: Cytochrome P450 2C19 (Homo sapiens, UniProt P33261); assay: Inhibition of CYP2C19; assay type: ADME
[19] = target: Hydroxycarboxylic acid receptor 2 (Homo sapiens) (UniProt Q8TDS4); assay: Agonist activity at human GPR109a at 10 uM; assay type: functional
[20] = system: Rattus norvegicus; assay: Ex-vivo inhibition of Hao2 in DOCA-salt treated Wistar rat kidney using [3H]-2-hydroxyoctanate as substrate assessed as inhibition of [3H]-H2O production at 30 mg/kg, po bid administered 29 days post DOCA-challenge for 15 days measured 12 to 15 hrs post-last dose by microbeta counting relative to vehicle-treated control; assay type: functional
[21] = system: Plasma; assay: Plasma concentration in Wistar rat at 30 mg/kg, po bid administered for 15 days measured 12 to 15 hrs post-last dose; assay type: ADME, organism-based; parameters: dose 30 mg/kg, route oral; details: in vivo
[22] = Plasma protein binding in rat; assay type: ADME, cell-free; details: read-out: PPB
[23] = Plasma concentration in Wistar rat at 3 mg/kg, po bid administered for 15 days measured 1 hr post-last dose; assay type: ADME, organism-based; parameters: dose 3 mg/kg, route oral
[24] = system: Plasma; assay: Plasma concentration in Wistar rat at 3 mg/kg, po bid administered for 15 days measured 12 to 15 hrs post-last dose; assay type: ADME, organism-based; parameters: dose 3 mg/kg, route oral; details: in vivo
[25] = target: T1, Cytochrome P450 1A2 (Homo sapiens, UniProt P05177); assay: Inhibition of CYP1A2; assay type: ADME
T1 sequence (P05177 whole entry): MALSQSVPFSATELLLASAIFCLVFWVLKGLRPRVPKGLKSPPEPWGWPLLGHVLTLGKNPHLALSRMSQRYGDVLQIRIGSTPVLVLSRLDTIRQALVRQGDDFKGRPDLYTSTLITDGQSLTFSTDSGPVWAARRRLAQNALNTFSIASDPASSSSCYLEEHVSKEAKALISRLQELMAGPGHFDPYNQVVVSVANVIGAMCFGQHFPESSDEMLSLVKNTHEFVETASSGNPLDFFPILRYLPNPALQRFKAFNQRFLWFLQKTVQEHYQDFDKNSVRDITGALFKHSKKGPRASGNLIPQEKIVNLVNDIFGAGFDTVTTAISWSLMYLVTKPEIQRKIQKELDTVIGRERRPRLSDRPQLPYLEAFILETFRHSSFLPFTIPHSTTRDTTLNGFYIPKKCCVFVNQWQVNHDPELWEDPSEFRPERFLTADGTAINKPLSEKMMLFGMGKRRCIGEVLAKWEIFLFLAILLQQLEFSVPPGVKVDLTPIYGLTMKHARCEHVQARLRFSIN

[26] = system: Rattus norvegicus; assay: Ex-vivo inhibition of Hao2 in DOCA-salt treated Wistar rat kidney using [3H]-2-hydroxyoctanate as substrate assessed as inhibition of [3H]-H2O production at 3 mg/kg, po bid administered 29 days post DOCA-challenge for 15 days measured 12 to 15 hrs post-last dose by microbeta counting relative to vehicle-treated control; assay type: functional
[27] = system: Kidney; assay: Drug uptake in Wistar rat kidney at 30 mg/kg, po bid administered for 15 days measured 12 to 15 hrs post-last dose; assay type: ADME, organism-based; parameters: dose 30 mg/kg, route oral; details: in vivo
[28] = target: T2, Nuclear receptor subfamily 1 group I member 2 (Homo sapiens, UniProt O75469); assay: Induction of PXR at 100 uM
T2 sequence (O75469 whole entry): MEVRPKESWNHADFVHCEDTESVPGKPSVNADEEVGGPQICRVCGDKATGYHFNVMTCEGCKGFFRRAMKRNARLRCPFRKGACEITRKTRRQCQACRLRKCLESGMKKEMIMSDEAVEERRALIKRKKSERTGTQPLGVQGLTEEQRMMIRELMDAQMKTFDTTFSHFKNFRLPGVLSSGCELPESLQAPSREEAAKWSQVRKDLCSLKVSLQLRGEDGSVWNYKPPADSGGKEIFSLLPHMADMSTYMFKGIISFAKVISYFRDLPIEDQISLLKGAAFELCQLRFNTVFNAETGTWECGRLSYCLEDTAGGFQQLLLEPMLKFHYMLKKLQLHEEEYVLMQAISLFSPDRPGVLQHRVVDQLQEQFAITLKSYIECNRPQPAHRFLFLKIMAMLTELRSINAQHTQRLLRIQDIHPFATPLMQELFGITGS

[29] = target: T3, 2-Hydroxyacid oxidase 2 (Rattus norvegicus, UniProt Q07523); assay: Inhibition of rat His6-tagged Hao2 expressed in Escherichia coli BL21/DE3 using 2-hydroxyoctanoic acid as substrate measured every 10 secs by spectrophotometry
T3 sequence (Q07523 whole entry): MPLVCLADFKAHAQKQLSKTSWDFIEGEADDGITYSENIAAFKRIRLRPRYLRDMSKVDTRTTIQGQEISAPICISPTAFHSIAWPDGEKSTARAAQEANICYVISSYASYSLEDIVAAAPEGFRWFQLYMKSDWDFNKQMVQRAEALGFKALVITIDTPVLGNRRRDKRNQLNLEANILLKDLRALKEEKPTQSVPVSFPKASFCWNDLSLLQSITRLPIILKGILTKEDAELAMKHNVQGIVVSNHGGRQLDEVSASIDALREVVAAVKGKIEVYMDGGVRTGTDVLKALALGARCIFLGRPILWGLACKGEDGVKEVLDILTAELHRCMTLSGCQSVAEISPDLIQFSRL

[30] = target: Cytochrome P450 2D6 (Homo sapiens, UniProt P10635); assay: Inhibition of CYP2D6; assay type: ADME
[31] = system: Kidney; assay: Drug uptake in Wistar rat kidney at 3 mg/kg, po bid administered for 15 days measured 12 to 15 hrs post-last dose; assay type: ADME, organism-based; parameters: dose 3 mg/kg, route oral; details: in vivo
[32] = Clearance in rat at 1 mg/kg, iv; assay type: ADME, organism-based; parameters: dose 1 mg/kg, route intravenous; details: in vivo
[33] = Plasma concentration in Wistar rat at 30 mg/kg, po bid administered for 15 days measured 1 hr post-last dose; assay type: ADME, organism-based; parameters: dose 30 mg/kg, route oral
[34] = Elimination half life in rat at 10 mg/kg, po; assay type: ADME, organism-based; parameters: dose 10 mg/kg, route oral; details: in vivo, read-out: beta t1/2 (converted)
[35] = system: Rattus norvegicus; assay: Antihypertensive activity in Wistar rat assessed as reduction in DOCA-salt-induced systolic blood pressure elevation at 30 mg/kg, po bid administered on day 14 post DOCA-challenge for 21 days measured 12 to 15 hrs post-last dose by plethysmography relative to vehicle-treated control; assay type: functional, organism-based; parameters: dose 30 mg/kg; details: Artery
[36] = Induction of cytochrome P450 at 10 uM; assay type: ADME
[37] = target: T4, 2-Hydroxyacid oxidase 1 (Rattus norvegicus, UniProt B0BNF9); assay: Inhibition of rat His6-tagged Hao1 expressed in Escherichia coli BL21/DE3 using glcolic acid as substrate measured every 10 secs by spectrophotometry
T4 sequence (B0BNF9 whole entry): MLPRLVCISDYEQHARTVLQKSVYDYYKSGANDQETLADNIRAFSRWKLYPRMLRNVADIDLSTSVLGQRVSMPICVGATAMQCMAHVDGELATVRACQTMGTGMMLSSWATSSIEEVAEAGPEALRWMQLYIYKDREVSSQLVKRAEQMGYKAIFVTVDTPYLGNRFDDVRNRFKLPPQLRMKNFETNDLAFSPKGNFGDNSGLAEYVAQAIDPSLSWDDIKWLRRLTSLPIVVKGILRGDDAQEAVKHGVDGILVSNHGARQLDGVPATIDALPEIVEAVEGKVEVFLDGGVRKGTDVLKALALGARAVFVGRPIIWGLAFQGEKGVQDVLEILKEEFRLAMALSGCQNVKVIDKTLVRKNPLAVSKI

[38] = system: Rattus norvegicus; assay: Ex-vivo inhibition of Hao2 in DOCA-salt treated Wistar rat kidney using [3H]-2-hydroxyoctanate as substrate assessed as inhibition of [3H]-H2O production at 3 mg/kg, po bid administered 29 days post DOCA-challenge for 15 days measured 1 hr post-last dose by microbeta counting relative to vehicle-treated control; assay type: functional
[39] = Tmax in rat at 10 mg/kg, po; assay type: ADME, organism-based; parameters: dose 10 mg/kg, route oral; details: in vivo
[40] = target: T5, 2-Hydroxyacid oxidase 2 (Rattus norvegicus) (UniProt Q07523); assay: Inhibition of rat His6-tagged Hao2 expressed in Escherichia coli BL21/DE3 using 2-hydroxyoctanoic acid as substrate at 10 uM measured every 10 secs by spectrophotometry
T5 sequence (whole entry): T3 sequence (Q07523 whole entry)

Chain of Cytochrome P450 2C19 (P33261 whole entry): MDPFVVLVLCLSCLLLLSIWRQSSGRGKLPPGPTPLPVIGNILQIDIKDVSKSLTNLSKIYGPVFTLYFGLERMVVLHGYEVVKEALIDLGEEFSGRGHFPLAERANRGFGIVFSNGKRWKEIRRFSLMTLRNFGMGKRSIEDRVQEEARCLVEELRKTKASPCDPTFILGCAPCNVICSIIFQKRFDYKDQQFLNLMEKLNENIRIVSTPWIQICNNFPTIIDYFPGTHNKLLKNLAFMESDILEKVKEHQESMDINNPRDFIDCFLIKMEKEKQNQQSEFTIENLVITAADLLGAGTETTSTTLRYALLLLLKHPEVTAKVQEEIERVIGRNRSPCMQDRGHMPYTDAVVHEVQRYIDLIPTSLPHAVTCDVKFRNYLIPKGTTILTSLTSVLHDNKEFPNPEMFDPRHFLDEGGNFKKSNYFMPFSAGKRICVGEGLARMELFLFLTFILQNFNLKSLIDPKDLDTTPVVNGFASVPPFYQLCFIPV
Chain of Cytochrome P450 3A4 (P08684 whole entry): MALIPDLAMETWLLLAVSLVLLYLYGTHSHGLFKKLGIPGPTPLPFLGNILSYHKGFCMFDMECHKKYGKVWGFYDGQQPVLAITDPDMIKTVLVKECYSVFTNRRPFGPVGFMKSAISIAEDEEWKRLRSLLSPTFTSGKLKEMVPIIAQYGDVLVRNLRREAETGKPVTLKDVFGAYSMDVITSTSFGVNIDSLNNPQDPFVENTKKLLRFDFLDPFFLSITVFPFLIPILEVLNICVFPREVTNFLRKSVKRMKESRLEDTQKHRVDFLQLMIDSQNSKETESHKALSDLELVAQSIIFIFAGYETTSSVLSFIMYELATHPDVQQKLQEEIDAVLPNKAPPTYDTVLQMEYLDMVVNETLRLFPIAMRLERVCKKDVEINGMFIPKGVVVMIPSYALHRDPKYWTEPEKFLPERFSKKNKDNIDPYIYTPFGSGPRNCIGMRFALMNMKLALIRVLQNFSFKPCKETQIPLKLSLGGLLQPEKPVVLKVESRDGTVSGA
Chain of Hydroxycarboxylic acid receptor 2 (Homo sapiens) (Q8TDS4 whole entry): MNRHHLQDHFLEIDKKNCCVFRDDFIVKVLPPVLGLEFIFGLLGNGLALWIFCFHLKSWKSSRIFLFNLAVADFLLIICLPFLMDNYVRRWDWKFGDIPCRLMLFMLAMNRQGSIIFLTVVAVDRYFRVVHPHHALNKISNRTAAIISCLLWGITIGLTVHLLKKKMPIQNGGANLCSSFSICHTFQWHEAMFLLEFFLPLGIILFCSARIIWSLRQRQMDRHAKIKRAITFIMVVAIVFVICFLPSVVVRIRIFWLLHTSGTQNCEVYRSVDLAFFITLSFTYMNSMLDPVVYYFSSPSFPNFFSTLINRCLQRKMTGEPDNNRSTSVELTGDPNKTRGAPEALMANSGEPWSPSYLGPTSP
Chain of Cytochrome P450 2C9 (P11712 whole entry): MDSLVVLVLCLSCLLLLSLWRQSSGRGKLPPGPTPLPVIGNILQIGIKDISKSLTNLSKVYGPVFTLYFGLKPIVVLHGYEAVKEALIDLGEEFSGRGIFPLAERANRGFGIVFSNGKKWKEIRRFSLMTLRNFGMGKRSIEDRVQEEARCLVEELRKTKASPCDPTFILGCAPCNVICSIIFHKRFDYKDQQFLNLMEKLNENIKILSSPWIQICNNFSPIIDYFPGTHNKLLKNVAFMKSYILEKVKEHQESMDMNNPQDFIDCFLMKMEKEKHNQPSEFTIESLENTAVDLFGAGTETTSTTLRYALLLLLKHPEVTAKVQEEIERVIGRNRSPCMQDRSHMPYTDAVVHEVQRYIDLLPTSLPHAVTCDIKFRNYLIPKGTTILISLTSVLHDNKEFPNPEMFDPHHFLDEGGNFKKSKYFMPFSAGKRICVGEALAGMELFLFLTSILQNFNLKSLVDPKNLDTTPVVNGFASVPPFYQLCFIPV
Chain of Cytochrome P450 2D6 (P10635 whole entry): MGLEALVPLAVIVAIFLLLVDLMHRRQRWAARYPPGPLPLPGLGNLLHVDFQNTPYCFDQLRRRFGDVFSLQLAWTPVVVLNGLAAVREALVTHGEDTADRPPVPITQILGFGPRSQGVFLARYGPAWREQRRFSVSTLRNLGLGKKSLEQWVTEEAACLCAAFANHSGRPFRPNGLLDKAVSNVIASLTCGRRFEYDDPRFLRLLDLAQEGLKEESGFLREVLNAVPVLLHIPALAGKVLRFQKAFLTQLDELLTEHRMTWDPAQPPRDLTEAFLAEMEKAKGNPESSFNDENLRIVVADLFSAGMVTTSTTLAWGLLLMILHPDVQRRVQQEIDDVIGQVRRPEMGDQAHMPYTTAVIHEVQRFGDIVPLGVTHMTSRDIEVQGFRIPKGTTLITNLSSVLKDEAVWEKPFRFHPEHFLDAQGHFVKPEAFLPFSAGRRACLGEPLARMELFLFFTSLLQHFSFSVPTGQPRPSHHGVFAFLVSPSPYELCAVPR

CC(C)NCC(O)COc1ccc(CC(N)=O)cc1 (stereo not given)
Activity [1]: Active

Cc1n[nH]c(C(=O)O)c1Cc1cccc(-c2ccc(F)cc2)c1
Drug uptake [2]: 10 nmol/g
Activity [3]: 32 mmHg
half-life [4]: 1.7 h
IC50 [5]: > 10 µM
AUC(0-t) at 8 h [6]: 27 µM·h
AUC(0-t) at 8 h [7]: 7.1 µM·h
Activity [8]: 31 mmHg
IC50 [9]: > 100 µM
IC50 [10]: > 10 µM
Drug metabolism [11]: 0.003 nmol/min/mg
inhibition in vivo at 30 mg/kg [12]: 38%
Ratio IC50 [13]: 150
Vd [14]: 0.6 L/kg
bioavailability [15]: 38%
Cmax [16]: 24 µM
Drug uptake [17]: 24 nmol/g
IC50 [18]: > 10 µM
Activity [19]: inactive
inhibition in vivo at 30 mg/kg [20]: 28%
concentration [21]: 1.9 µM
fraction unbound [22]: < 0.01
concentration at 1 h [23]: 2.2 µM
concentration [24]: 0.2 µM
IC50 [25]: > 10 µM
inhibition in vivo at 3 mg/kg [26]: 0%
Drug uptake [27]: 7 nmol/g
Activity [28]: Not Active
IC50 [29]: 0.3 µM
IC50 [30]: > 10 µM
Drug uptake [31]: 3 nmol/g
clearance [32]: 0.48 L/h/kg
concentration at 1 h [33]: 8 µM
half-life [34]: 1.5 h
Activity [35]: Active
Activity [36]: Not Active
IC50 [37]: 45.7 µM
inhibition in vivo at 3 mg/kg [38]: 29%
Tmax [39]: 0.25 h

Cc1n[nH]c(C(=O)O)c1-c1ccc(F)cc1
inhibition [40]: 35%
